Reference: US20220257764A1, “USE OF DIKETONE COMPOUND IN PHOTODYNAMIC THERAPY OR DIAGNOSIS” (BEIJING WHOLESOMETECH CO., LTD., priority 2019, published 2022)

Experiments:
[1] = system: 4T1 cells (breast cancer cells in mice); assay: Photodynamic therapy of tumors in mice (tumor size, tumor weight, B cells in tumor tissue); assay type: in vivo, BALB/C mice; conditions: 14 days after treatment
Experimental: 1. Photodynamic therapy experiments on tumors were carried out by using BJMU-204 as a photosensitizer and BALB/C mice as experimental animals. Modeling mode: BALB/C mice were divided into 5 groups in total, 11-12 mice in each group. 4T1 cells (breast cancer cells in mice) were resuscitated and subcultured to a better cell state for tumorigenesis inoculation. BALB/C mice were locally depilated and disinfected, and tumor cells were injected into the mouse mammary fat pad in situ. Tumors were formed within 7 to 10 days. […] [table] 2. Mice in each experimental group were subjected to blood collection for serum separation and necropsy, and tumors were taken out and measured to obtain their wet weights; tumor tissues were fixed, pathological examinations were performed, and H. E. staining was used to observe the changes of tumors of the mice under an optical microscope; blood routine indicators (including white blood cell count (WBC), red blood cell count (RBC), lymphocyte count (LY), platelet count (PLT) and many other blood routine indicators) and blood biochemical indicators (including routine blood biochemical indicators) were tested and analyzed in the Laboratory of Peking University Third Hospital. 3. Tumors were taken out of mice in each experimental group, a piece of tumor tissue about 1 cm*1 cm*0.5 cm in size was cut up and placed in a 10 ml EP tube. 5 ml of pancreatin was added for digestion. 30 min later, the digestion was ended. The digestion solution and the tumor tissue were sieved through a single cell sieve to obtain a tumor tissue single-cell suspension. B220 antibody (for flow cytometry) was added to the suspension and the resulting solution was stained with a PI staining solution; 30 min later, the staining was ended and the staining solution was removed; next, re-suspending was carried out with a PBS solution for test with a flow cytometry.

[2] = Blood routine and blood biochemical indicators of tumor-bearing mice after 2 weeks of treatment; assay type: in vivo, BALB/C mice; set-up: Mean corpuscular hemoglobin (MCH) / Mean corpuscular volume (MCV) / Red blood cell volume distribution width (RDW) / Hematocrit (HCT) / Hemoglobin (HGB): unit not given here; conditions: for Hematocrit (HCT) / Hemoglobin (HGB) / Mean corpuscular hemoglobin (MCH) / Mean corpuscular hemoglobin concentration (MCHC) / Mean corpuscular volume (MCV) / Mean platelet volume (MPV) / Platelet count (PLT) / Platelet distribution width (PDW) / Plateletocrit (PCT) / Red blood cell volume distribution width (RDW) / Red blood count (RBC) / White blood cell count (WBC): after 2 weeks
Experimental: 1. Photodynamic therapy experiments on tumors were carried out by using BJMU-204 as a photosensitizer and BALB/C mice as experimental animals.
Modeling mode: BALB/C mice were divided into 5 groups in total, 11-12 mice in each group. 4T1 cells (breast cancer cells in mice) were resuscitated and subcultured to a better cell state for tumorigenesis inoculation. BALB/C mice were locally depilated and disinfected, and tumor cells were injected into the mouse mammary fat pad in situ. Tumors were formed within 7 to 10 days.
Administration time: drug intervention was given to mice after tumor formation, and photodynamic therapy was given by intratumoral injection every other day under the irradiation of laser with a wavelength of 450 nm to 480 nm at a light intensity of 200 mW/cm^2.
Administration mode: as shown in the table below, the photosensitizer was dissolved in physiological saline and injected in mice in groups 1-3 intratumorally, and the groups receiving photodynamic therapy were irradiated with light immediately after the injection.
2. Mice in each experimental group were subjected to blood collection for serum separation and necropsy, and tumors were taken out and measured to obtain their wet weights; tumor tissues were fixed, pathological examinations were performed, and H. E. staining was used to observe the changes of tumors of the mice under an optical microscope; blood routine indicators (including white blood cell count (WBC), red blood cell count (RBC), lymphocyte count (LY), platelet count (PLT) and many other blood routine indicators) and blood biochemical indicators (including routine blood biochemical indicators) were tested and analyzed in the Laboratory of Peking University Third Hospital.

[3] = system: human immortalized keratinocyte (Hacat cells); assay: MTT cytotoxicity to normal cells, Experimental Example 5; assay type: cell-based
Experimental: (1) Logarithmic phase cells were collected, the concentration of a cell suspension was adjusted, the cell suspension was added to a cell culture plate in a dose of 100 μL per well, and the cells were then added to a cell culture plate so that the density of the cells to be tested was adjusted to 1000-10000 wells (edge wells were filled with sterile PBS). […] Generally, the drug in 5 to 7 gradients was added in a dose of 100 μL per well, and 3 to 5 wells were set for each concentration of a drug. […] Cells in the experimental photosensitizer-light irradiation group were incubated for 15 min and then irradiated with light. […] After light irradiation, the cells were washed with PBS. […] After light irradiation, the cells were washed with PBS. […] If the drug could react with the MTT, centrifuging was carried out first, and then the culture solution was discarded and the cells were carefully washed twice or three times with PBS, and then the culture solution containing MTT was added. (6) The culture was terminated and the culture solution in the wells was carefully removed. (7) Dimethyl sulfoxide was added in a dose of 150 μL per well, and the plate was then shaken on a shaker at a low speed for 10 min to fully dissolve crystals. The absorbance at OD 490 nm of each well was measured with enzyme-linked immunoassay. […]

[4] = Control group-1: intratumoral injection 3%, no light
[5] = High-concentration (3%) intratumoral injection + light 10 min
[6] = Low-concentration (0.5%) intratumoral injection + light 10 min

Question: Which results are given for `CC(=O)C(C)=O` [BJMU-204]?
Answer: number of B cells in tumor tissues ([1]; 3% (p<0.001) and 0.5% (p<0.01) intratumoral + light vs control): increases significantly; weight changes of tumor tissues ([1]; 3% and 0.5% intratumoral + light, both p<0.001 vs control, better at high concentration): obvious growth inhibition effect; size changes of tumor tissues ([1]; 3% and 0.5% intratumoral + light, both p<0.001 vs control, more prominent at high concentration): controlled and decreased; Hematocrit (HCT) [2, 4]: 28.8 ± 5.76; Hemoglobin (HGB) [2, 4]: 117 ± 26.64; Mean corpuscular hemoglobin (MCH) [2, 4]: 18.43 ± 0.67; Mean corpuscular hemoglobin concentration (MCHC) [2, 4]: 404.5 ± 26.01; Mean corpuscular volume (MCV) [2, 4]: 45.65 ± 1.35; Mean platelet volume (MPV) [2, 4]: 6.1 ± 0; Platelet count (PLT) [2, 4]: 312 ± 125.04; Platelet distribution width (PDW) [2, 4]: 16.2 ± 0; Plateletocrit (PCT) [2, 4]: 0.24 ± 0; Red blood cell volume distribution width (RDW) [2, 4]: 14.18 ± 0.75; Red blood count (RBC) [2, 4]: 6.33 ± 1.36; White blood cell count (WBC) [2, 4]: 352.8 ± 45.95; Hematocrit (HCT) [2, 5]: 32.4 ± 12.48; Hemoglobin (HGB) [2, 5]: 123 ± 40.8; Mean corpuscular hemoglobin (MCH) [2, 5]: 18.43 ± 1.93; Mean corpuscular hemoglobin concentration (MCHC) [2, 5]: 387.5 ± 40.38; Mean corpuscular volume (MCV) [2, 5]: 47.5 ± 1.95; Mean platelet volume (MPV) [2, 5]: 6.63 ± 0.76; Platelet count (PLT) [2, 5]: 267 ± 167.28; Platelet distribution width (PDW) [2, 5]: 15.13 ± 0.76; Plateletocrit (PCT) [2, 5]: 0.24 ± 0.12; Red blood cell volume distribution width (RDW) [2, 5]: 14.58 ± 0.84; Red blood count (RBC) [2, 5]: 6.81 ± 2.51; White blood cell count (WBC) [2, 5]: 136.8 ± 31.45; Hematocrit (HCT) [2, 6]: 32.64 ± 12.12; Hemoglobin (HGB) [2, 6]: 141.6 ± 42.72; Mean corpuscular hemoglobin (MCH) [2, 6]: 20.1 ± 1.84; Mean corpuscular hemoglobin concentration (MCHC) [2, 6]: 447 ± 48.54; Mean corpuscular volume (MCV) [2, 6]: 45.04 ± 1.21; Mean platelet volume (MPV) [2, 6]: 6.23 ± 0.61; Platelet count (PLT) [2, 6]: 494.4 ± 387.6; Platelet distribution width (PDW) [2, 6]: 13.37 ± 1.47; Plateletocrit (PCT) [2, 6]: 0.48 ± 0.24; Red blood cell volume distribution width (RDW) [2, 6]: 13.78 ± 0.59; Red blood count (RBC) [2, 6]: 7.22 ± 2.62; White blood cell count (WBC) [2, 6]: 193.5 ± 70; number of platelets and white blood cells in the blood ([2]; treated groups vs control groups (p<0.001), after 2 weeks of treatment): decreases; liver, kidney and blood toxicity ([2]; tumor-bearing mice, continuous treatment for 14 days at high or low concentration therapeutic doses): will not cause liver, kidney and blood toxicity; cytotoxicity to Hacat cells [3]: relatively low cytotoxicity
